{"source": "patent US6660771B1", "about": "“Remedies for liver regeneration of transplanted liver” (Chugai Seiyaku Kabushiki Kaisha, priority 1999, dated 2003)", "test_system": "partial liver transplant", "assay": "Liver regeneration-promoting effect in rat 30% orthotopic partial liver transplantation", "format": "in vivo", "conditions": "for Relative liver gain: (liver weight on day 5) / (liver weight on day 0); for Relative liver gain / Liver weight gain: transfusion 50 ml/kg/day up to day 5, mean±SD; for Liver weight gain: (liver weight on day 5) − (liver weight on day 0)", "experimental": "Male Wistar rats at 8 weeks of age (240-280g; 8-9 animals per group) were used for 30% orthotopic partial liver transplantation. Isolation of the liver from donors was performed as follows. Animals were abdominally incised under ether anesthesia and about 70% of the liver was resected and the common bile duct and arteries were separated immediately before starting liver perfusion with cold physiological saline from the portal vein. After starting perfusion, the remaining liver with the portal vein and the posterior vena cava-was removed from the donor animal. Recipients were abdominally incised under Nembutal anesthesia and the whole liver was resected and the upper end of the posterior vena cava of the graft was continuously sutured (7-0 proline) with the proximal end of the posterior vena cava of the recipients. The donor posterior vena cava of the graft was sutured end-to-end with that of the recipient, and the portal vein and common bile duct of the graft were anastomosed with those of the recipient, respectively, by the cuff technique. The operation period was 45 minutes on average, the […] period was within 900 seconds, and the total period for cold-storing the graft was 1 hour. Immediately after the operation was completed, a catheter was inserted from the jugular vein. The catheter was passed through the subcutaneous tunnel across both scapulae, and connected to a swivel through a protective coil after a harness was put on the animal. Rats were transferred to a metabolic cage and divided into the following two groups and continuously pumped with the transfusion formula at an administration rate of 50 ml/kg/day up to day 5. Valine group: An aqueous solution of L-valine (Japanese Pharmacopoeia) at 3.376% was transfused in combination with glucose at 5% on the day of operation and 20% on days 1-5. Control group: A solution of a 10% amino acid blend formula (Moripron F® made by Roussel Morishita Co., Ltd.) diluted in distilled water at a total nitrogen level equivalent to that of the valine group was transfused in combination with glucose at 5% on the day of operation and 20% on days 1-5. Animals were given free access to normal feed and water. On day 5, animals were abdominally incised under ether anesthesia and blood was collected from the abdominal aorta and the liver was separated after bleeding. Serum protein (TP), albumin (ALB), GOT, GPT and LDH and the liver weight were determined. The resected liver was fixed with formalin to prepare a hematoxylin-eosin stained sample for histological tests. The measurement results were expressed in mean±SD and statistically analyzed by the Mann-Whitney U test to show a significant difference if p<0.05. Liver weight gain and relative liver gain were determined as morphologic indications of the liver-regenerating effect. Here, the liver weight gain means (liver weight on day 5)-(liver weight on day 0), and the relative liver gain means (liver weight on day 5)/(liver weight on day 0). Not the liver weight itself but the liver weight gain was chosen as indication because liver transplants vary in weight and the difference between the weight of each liver transplant (weight on day 0) and the weight of the regenerated transplant (weight on day 5) more appropriately indicates changes in the transplant."}
{"smiles": "CC(C)[C@H](N)C(=O)O", "note": "[Valine, L-valine]", "values": [{"measurement": "Relative liver gain", "result": "2.24 ± 0.18"}, {"measurement": "Relative liver gain", "setting": "listed as valine", "result": "2.24±0.18"}, {"measurement": "Liver weight gain", "result": "3.88 ± 0.66", "unit": "g"}, {"measurement": "Liver weight gain", "setting": "listed as valine", "result": "3.88 ± 0.66", "unit": "g"}, {"measurement": "Histopathological tests of the regenerated liver", "setting": "day 5, hematoxylin-eosin stained sample", "result": "No abnormal observation"}, {"measurement": "Edema or necrosis of hepatocytes", "setting": "day 5, histology of regenerated liver", "result": "Neither control group nor valine group showed edema or necrosis"}, {"measurement": "Liver weight (g) on day 5", "setting": "male Wistar rats, continuous i.v. transfusion 50 ml/kg/day up to day 5, mean±SD", "result": "7.05 ± 0.99", "unit": "g"}, {"measurement": "Liver weight (g) on day 0", "setting": "male Wistar rats, graft weight on day of transplantation (baseline), mean±SD", "result": "3.16 ± 0.45", "unit": "g"}, {"measurement": "Biochemical blood tests (TP, ALB, GOT, GPT, LDH)", "setting": "serum on day 5, valine group vs control group", "result": "No significant difference"}]}
